Source: patent publication US8980879B2 (AbbVie Inc., priority 2013, dated 2015)

Experiments:
BRD4 (BDII_E352-M457) = molecular target: T1, BRD4 (BDII_E352-M457) (Homo sapiens, UniProt O60885); test: TR-FRET bromodomain binding assay, BRD4 second bromodomain
T1 construct: protocol; made in house
Protocol: (§1) A time-resolved fluorescence resonance energy transfer (TR-FRET) assay was used to determine the affinities of compounds of the Examples listed in Table 1 for each bromodomain of BRD4. His-tagged first (BD1: amino acids K57-E168) and second (BD2: amino acids E352-E168) bromodomains of BRD4 were expressed and purified. An Alexa647-labeled BET-inhibitor was used as the fluorescent probe in the assay.
(§2) Compound dilution series were prepared in DMSO via an approximately 3-fold serial dilution from one of the following:
(§3) Assay method D: 500 μM-8.5 nM
(§4) Assay method E: 0.47 mM to 7.8 nM
(§5) Assay method F: 250 μM-4.2 nM
(§6) Assay method G: 0.047 mM to 0.78 nM
(§7) or 5-fold serial dilution from one of the following:
(§8) Assay method A: 2.5 mM-800 nM
(§9) Assay method B: 2.5 mM-797 nM
(§10) For Assay methods A, C, D, and F: Compounds were then diluted 6:100 in assay buffer (20 mM Sodium Phosphate, pH 6.0, 50 mM NaCl, 1 mM Ethylenediaminetetraacetic acid, 0.01% Triton X-100, 1 mM DL-Dithiothreitol) to yield 3× working solutions. Six microliters (μL) of the working solution was then transferred to white, low-volume assay plates (Costar #3673). A 1.5× assay mixture containing His-tagged bromodomain, Europium-conjugated anti-His antibody (Invitrogen PV5596) and the Alexa-647-conjugated probe molecule was also prepared. Twelve μL of this solution were added to the assay plate to reach a final volume of 18 μL.
(§11) For Assay methods B, E, and G: Compound dilutions were added directly into white, low-volume assay plates (Perkin Elmer Proxiplate 384 Plus#6008280) using a Labcyte Echo in conjunction with Labcyte Access and Thermo Multidrop CombinL robotics. Compounds were then suspended in eight microliters (μL) of assay buffer (20 mM Sodium Phosphate, pH 6.0, 50 mM NaCl, 1 mM Ethylenediaminetetraacetic acid disodium salt dihydrate, 0.01% Triton X-100, 1 mM DL-Dithiothreitol) containing His-tagged bromodomain, Europium-conjugated anti-His antibody (Invitrogen PV5596) and Alexa-647-conjugated probe.
(§12) The final concentration of 1× assay mixture for assay methods A, B, C, D, E, F, and G contains 2% DMSO, 8 nM His-tagged bromodomain, 1 nM Europium-conjugated anti-His-tag antibody and 100 nM or 30 nM probe (for BDI or BDII, respectively) and compound concentration in the range of: 50 μM-16 nM for method A, 49.02 μM-15.63 nM for method B, 25 μM-423 pM for method C, 10 μM-169 pM for method D, 9.19 μM 150 pM for method E, 5 μM-85 pM for method F, and 0.92 μM-15 pM for method G.
(§13) After a one-hour equilibration at room temperature, TR-FRET ratios were determined using an Envision multilabel plate reader (Ex 340, Em 495/520).
(§14) TR-FRET data were normalized to the means of 24 no-compound controls (“high”) and 8 controls containing 1 μM un-labeled probe (“low”). Percent inhibition was plotted as a function of compound concentration and the data were fit with the 4 parameter logistic equation to obtain IC50s Inhibition constants (Ki) were calculated from the IC50s, probe Kd and probe concentration. Typical Z′ values were between 0.65 and 0.75. The minimum significant ratio was determined to evaluate assay reproducibility (Eastwood et al., (2006) J Biomol Screen, 11: 253-261). The MSR was determined to be 2.03 for BDI and 1.93 for BDII, and a moving MSR (last six run MSR overtime) for both BDI and BDII was typically <3.

BRD4 (BDI_K57-E168) = molecular target: T2, BRD4 (BDI_K57-E168) (Homo sapiens, UniProt O60885); test: TR-FRET bromodomain binding assay, BRD4 first bromodomain; details: His-tagged BD1, 100 nM Alexa647 probe; assay protocol D or F as given per row in c1; Ki calculated from IC50
T2 construct: BD1: amino acids K57-E168; made in house
Protocol: as §1, §2, §3, §4, §5, §6, §7, §8, §9, §10, §11, §12, §13, §14

[1] = test system: breast cancer cell line MX-1; test: MX-1 cell line proliferation assay; type: cell-based; details: Homo sapiens, MX1; MX-1 cells, 3-day (72 h) proliferation, Cell Titer Glo; read-out: Cellular proliferation: EC50
Protocol: MX-1 Cell Line Proliferation Assay
The impact of compounds of the Examples on cancer cell proliferation was determined using the breast cancer cell line MX-1 (ATCC) in a 3-day proliferation assay and the data are reported in Table 1. MX-1 cells were maintained in RPMI 1640 medium (Sigma) supplemented with 10% FBS at 37 C.° and an atmosphere of 5% CO2. For compound testing, MX-1 cells were plated in 96-well black bottom plates at a density of 5000 cells/well in 90 μL of culture media and incubated at 37° overnight to allow cell adhesion and spreading. Compound dilution series were prepared in DMSO via a 3-fold serial dilution from 3 mM to 0.1 μM. The DMSO dilution series were then diluted 1:100 in phosphate buffered saline, and 10 μL of the resulted solution were added to the appropriate wells of the MX-1 cell plate. The final compound concentrations in the wells were 3, 1, 0.3, 0.1, 0.03, 0.01, 0.003, 0.001, 0.0003 and 0.0001 μM.
Luminescence readings from the Cell Titer Glo assay were normalized to the DMSO treated cells and analyzed using the GraphPad Prism software with sigmoidal curve fitting to obtain EC50s. The minimum significant ratio (MSR) was determined to evaluate assay reproducibility (Eastwood et al., (2006) J Biomol Screen, 11: 253-261). The overall MSR was determined to be 2.1 and a moving MSR (last six run MSR overtime) has been <2.

| SMILES | Ki (BRD4 (BDII_E352-M457)) | Ki (BRD4 (BDI_K57-E168)) | EC50 [1] |
| --- | --- | --- | --- |
| CCS(=O)(=O)Nc1ccc2c(c1)-c1cn(C)c3c(=O)[nH]cc(c13)CN2c1ccc(F)cc1 [Example 12] | 4.3 nM | 2.18 nM | 5.63 nM |
| Cn1cc2c3c(c[nH]c(=O)c31)CN(c1ccc(F)cc1)c1ccc(Cl)cc1-2 [Example 13] | 34.1 nM | 2.74 nM | 72 nM |
| Cn1cc2c3c(c[nH]c(=O)c31)CN(c1ccc(F)cc1)c1ncc(N)cc1-2 [Example 14] | 3.69 nM | 3 nM | 2.78 nM |
| CCOC(=O)C1c2c[nH]c(=O)c3c2c(cn3C)-c2cc(CS(C)(=O)=O)ccc2N1c1ccc(F)cc1 (stereo not drawn) [Example 15] | 26.9 nM | 9.14 nM | 36.3 nM |
| Cn1cc2c3c(c[nH]c(=O)c31)CN(c1ccc(F)cc1)c1ncc(F)cc1-2 [Example 16] | 5.07 nM | 0.79 nM | 5.55 nM |
| Cn1cc2c3c(c[nH]c(=O)c31)CN(c1ccc(F)cc1)c1ncc(NC(=O)Cc3cc(F)ccc3Cl)cc1-2 [Example 17] | 2.48 nM | 1.43 nM | 19.9 nM |
| Cc1cc(CC(=O)Nc2cnc3c(c2)-c2cn(C)c4c(=O)[nH]cc(c24)CN3c2ccc(F)cc2)nn1C [Example 18] | 3.46 nM | 1.82 nM | 7.02 nM |
| Cn1cc2c3c(c[nH]c(=O)c31)CN(c1ccc(F)cc1)c1ncc(NC(=O)Cn3ccc(-c4ccccc4F)n3)cc1-2 [Example 19] | 11.6 nM | 1.32 nM | 68.7 nM |
| Cn1cc2c3c(c[nH]c(=O)c31)CN(c1ccc(F)cc1)c1ncc(NC(=O)Cc3ccc(Cl)cc3F)cc1-2 [Example 20] | 4.69 nM | 1.76 nM | 36.5 nM |
| Cn1cc2c3c(c[nH]c(=O)c31)CN(c1ccc(F)cc1)c1ncc(NC(=O)Cc3ccc4c(c3)CCCO4)cc1-2 [Example 21] | 2.69 nM | 1.05 nM | 16.6 nM |
| Cn1cc(CC(=O)Nc2cnc3c(c2)-c2cn(C)c4c(=O)[nH]cc(c24)CN3c2ccc(F)cc2)cn1 [Example 22] | 3.03 nM | 1.29 nM | 16.5 nM |
| Cn1cc2c3c(c[nH]c(=O)c31)CN(c1ccc(F)cc1)c1ccc(N)cc1-2 [Example 23] | 7.54 nM | 1.38 nM | 4.79 nM |
| Cn1cc2c3c(c[nH]c(=O)c31)C(c1ccccc1)Nc1ccc(CS(C)(=O)=O)cc1-2 (stereo not drawn) [Example 25] | 124 nM | 192 nM | > 1000 nM |
| Cn1cc2c3c(c[nH]c(=O)c31)CN(c1ccc(F)cc1)c1ccc(NS(=O)(=O)c3ccccc3)cc1-2 [Example 26] | 3.12 nM | 0.27 nM | 9.48 nM |
| CC(=O)Nc1ccc(S(=O)(=O)Nc2ccc3c(c2)-c2cn(C)c4c(=O)[nH]cc(c24)CN3c2ccc(F)cc2)cc1 [Example 27] | 1.73 nM | 0.2 nM | 8.56 nM |
| Cn1cc(CC(=O)Nc2ccc3c(c2)-c2cn(C)c4c(=O)[nH]cc(c24)CN3c2ccc(F)cc2)cn1 [Example 28] | 8.21 nM | 1.17 nM | 13.5 nM |
| Cn1cc2c3c(c[nH]c(=O)c31)CN(c1ccc(F)cc1)c1ccc(NC(=O)Cc3cc(F)ccc3Cl)cc1-2 [Example 30] | 21.8 nM | 3.53 nM | 51.2 nM |

| SMILES | Ki (BRD4 (BDII_E352-M457)) | Ki (BRD4 (BDI_K57-E168)) | EC50 [1] |
| --- | --- | --- | --- |
| Cc1ncc(CC(=O)Nc2ccc3c(c2)-c2cn(C)c4c(=O)[nH]cc(c24)CN3c2ccc(F)cc2)s1 [Example 32] | 11.6 nM | 1.37 nM | 12.3 nM |
| Cc1cc(CC(=O)Nc2ccc3c(c2)-c2cn(C)c4c(=O)[nH]cc(c24)CN3c2ccc(F)cc2)nn1C [Example 33] | 6.39 nM | 1.49 nM | 17.4 nM |
| Cn1cc2c3c(c[nH]c(=O)c31)CN(c1ccc(F)cc1)c1ccc(NC(=O)CCCC(=O)Nc3ccccc3)cc1-2 [Example 34] | 24.9 nM | 2.2 nM | 47.9 nM |
| Cc1cnc(C(=O)Nc2ccc3c(c2)-c2cn(C)c4c(=O)[nH]cc(c24)CN3c2ccc(F)cc2)cn1 [Example 35] | 18.9 nM | 2.01 nM | 26.4 nM |
| CCn1ccc(CNc2ccc3c(c2)-c2cn(C)c4c(=O)[nH]cc(c24)CN3c2ccc(F)cc2)n1 [Example 37] | 7.42 nM | 1.07 nM | 19 nM |
| Cn1nccc1CNc1ccc2c(c1)-c1cn(C)c3c(=O)[nH]cc(c13)CN2c1ccc(F)cc1 [Example 38] | 9.3 nM | 1.52 nM | 9 nM |
| Cn1cc2c3c(c[nH]c(=O)c31)CN(c1ccc(F)cc1)c1ccc(NCCCn3cccn3)cc1-2 [Example 39] | 12.3 nM | 1.94 nM | 23.2 nM |
| Cc1cccc(CNc2ccc3c(c2)-c2cn(C)c4c(=O)[nH]cc(c24)CN3c2ccc(F)cc2)n1 [Example 40] | 7.27 nM | 0.86 nM | 25.5 nM |
| COC(=O)CCCNc1ccc2c(c1)-c1cn(C)c3c(=O)[nH]cc(c13)CN2c1ccc(F)cc1 [Example 41] | 12.5 nM | 1.73 nM | 55.6 nM |
| Cn1cncc1CNc1ccc2c(c1)-c1cn(C)c3c(=O)[nH]cc(c13)CN2c1ccc(F)cc1 [Example 42] | 13.4 nM | 2.07 nM | 9.83 nM |
| Cc1cccnc1CNc1ccc2c(c1)-c1cn(C)c3c(=O)[nH]cc(c13)CN2c1ccc(F)cc1 [Example 43] | 6.49 nM | 1.25 nM | 17.3 nM |
| Cn1cc2c3c(c[nH]c(=O)c31)CN(c1ccc(F)cc1)c1ccc(NC(=O)Nc3cccc(Oc4ccccc4)c3)cc1-2 [Example 44] | > 408 nM | 53.3 nM | > 1000 nM |
| CN1CCN(CCC(=O)Nc2ccc3c(c2)-c2cn(C)c4c(=O)[nH]cc(c24)CN3c2ccc(F)cc2)CC1 [Example 47] | 13.3 nM | 1.14 nM | 14.3 nM |
| Cn1cc2c3c(c[nH]c(=O)c31)CN(c1ccc(F)cc1)c1ccc(NC(=O)CCN3CCCCC3)cc1-2 [Example 48] | 19.5 nM | 2.39 nM | 29.5 nM |
| Cn1cc2c3c(c[nH]c(=O)c31)CN(c1ccc(F)cc1)c1ccc(NC(=O)Cc3cc(F)ccc3Br)cc1-2 [Example 49] | 29.8 nM | 2.74 nM | 65.1 nM |
| Cn1cc2c3c(c[nH]c(=O)c31)CN(c1ccc(F)cc1)c1ccc(NC(=O)Cc3cc(Cl)ccc3Cl)cc1-2 [Example 50] | 33.1 nM | 5.94 nM | 63.7 nM |
| Cn1cc2c3c(c[nH]c(=O)c31)CN(c1ccc(F)cc1)c1ccc(NC(=O)Cc3cc(F)ccc3F)cc1-2 [Example 52] | 55.9 nM | 2.76 nM | 55.9 nM |
